{
  "source": "paper PMC10041525",
  "about": "“New Dual Inhibitors of Bacterial Topoisomerases with Broad-Spectrum Antibacterial Activity and In Vivo Efficacy against Vancomycin-Intermediate Staphylococcus aureus” (Journal of Medicinal Chemistry, 2023)",
  "key": {"[1]": {"test_system": "100 A. baumannii strains (50 MDR, 50 non-MDR)", "assay": "MIC broth microdilution at IHMA Europe, panel of 100 strains", "assay_type": "cell-based", "conditions": "for MIC / MIC50 / MIC90: Acinetobacter baumannii; for MIC50: read-out: MIC 50; for MIC90: read-out: MIC 90"}, "[2]": {"assay": "in vitro", "assay_type": "in vitro ADME, mouse", "conditions": "male, CD-1, mouse"}, "[3]": {"test_system": "E. coli ATCC 35218", "assay": "IHMA QC MIC", "assay_type": "cell-based", "conditions": "Escherichia coli, ATCC35218, read-out: MIC (QC, repeated tests)", "procedure": "(§1) The panel of Hungarian clinical isolates and controls measured following the same method as detailed above, and albeit measurements were carried out in 384-well microtiter plates (Corning Inc.)."}, "[4]": {"test_system": "A. baumannii ATCC 17978", "assay": "IHMA QC MIC", "assay_type": "cell-based", "procedure": "as §1"}, "[5]": {"test_system": "E. faecium (n = 13)", "assay": "MIC broth microdilution at IHMA Europe", "assay_type": "cell-based", "conditions": "for MIC: Enterococcus faecium, read-out: MIC"}},
  "note": "Like-named read-outs stand apart in the source and are kept apart here.",
  "data": [
    {"smiles": "Cc1[nH]c(C(=O)Nc2nc3c(N4[C@@H]5CC[C@H]4COC5)cc(C(=O)O)cc3s2)c(Cl)c1Cl", "note": "[7h, 4-((1R,5S)-3-Oxa-8-azabicyclo[3.2.1]octan-8-yl)-2-(3,4-dichloro-5-methyl-1H-pyrrole-2-carboxamido)benzo[d]thiazole-6-carboxylic Acid]", "values": [
      {"measurement": "MIC", "setting": "[1]; A. baumannii IHMA 2181370, Morocco 2020, MDR, read-out: MIC", "value": 2, "unit": "µg/mL"},
      {"measurement": "MIC", "setting": "[1]; A. baumannii IHMA 2183729, Argentina 2020, MDR, read-out: MIC", "value": 4, "unit": "µg/mL"},
      {"measurement": "MIC", "setting": "[1]; A. baumannii IHMA 2183849, Argentina 2020, Non-MDR, read-out: MIC", "value": 2, "unit": "µg/mL"},
      {"measurement": "MIC", "setting": "[1]; A. baumannii IHMA 2184382, Japan 2020, Non-MDR, read-out: MIC", "value": 2, "unit": "µg/mL"},
      {"measurement": "MIC", "setting": "[1]; A. baumannii IHMA 2193375, Venezuela 2020, MDR, read-out: MIC", "value": 2, "unit": "µg/mL"},
      {"measurement": "MIC", "setting": "[1]; A. baumannii IHMA 2193485, Venezuela 2020, Non-MDR, read-out: MIC", "value": 1, "unit": "µg/mL"},
      {"measurement": "MIC", "setting": "[1]; A. baumannii IHMA 2193607, Venezuela 2020, MDR, read-out: MIC", "value": 2, "unit": "µg/mL"},
      {"measurement": "MIC", "setting": "[1]; A. baumannii IHMA 2195460, Italy 2020, MDR, read-out: MIC", "value": 2, "unit": "µg/mL"},
      {"measurement": "MIC", "setting": "[1]; A. baumannii IHMA 2196914, South Africa 2020, MDR, read-out: MIC", "value": 2, "unit": "µg/mL"},
      {"measurement": "MIC", "setting": "[1]; A. baumannii IHMA 2196959, South Africa 2020, MDR, read-out: MIC", "value": 2, "unit": "µg/mL"},
      {"measurement": "MIC", "setting": "[1]; A. baumannii IHMA 2203763, Spain 2020, MDR, read-out: MIC", "value": 4, "unit": "µg/mL"},
      {"measurement": "MIC", "setting": "[1]; A. baumannii IHMA 2205144, Korea, South 2020, MDR, read-out: MIC", "value": 2, "unit": "µg/mL"},
      {"measurement": "MIC", "setting": "[1]; A. baumannii IHMA 2206459, Taiwan 2020, MDR, read-out: MIC", "value": 2, "unit": "µg/mL"},
      {"measurement": "MIC", "setting": "[1]; A. baumannii IHMA 2206507, Taiwan 2020, Non-MDR, read-out: MIC", "value": 1, "unit": "µg/mL"},
      {"measurement": "MIC", "setting": "[1]; A. baumannii IHMA 2212575, Hungary 2020, Non-MDR, read-out: MIC", "value": 4, "unit": "µg/mL"},
      {"measurement": "MIC", "setting": "[1]; A. baumannii IHMA 2215307, Hong Kong 2020, Non-MDR, read-out: MIC", "value": 2, "unit": "µg/mL"},
      {"measurement": "MIC", "setting": "[1]; A. baumannii IHMA 2216586, Taiwan 2020, MDR, read-out: MIC", "value": 2, "unit": "µg/mL"},
      {"measurement": "MIC", "setting": "[1]; A. baumannii IHMA 2223200, Colombia 2020, Non-MDR, read-out: MIC", "value": 2, "unit": "µg/mL"},
      {"measurement": "MIC", "setting": "[1]; A. baumannii IHMA 2224017, Panama 2020, MDR, read-out: MIC", "value": 4, "unit": "µg/mL"},
      {"measurement": "MIC", "setting": "[1]; A. baumannii IHMA 2224303, Panama 2020, Non-MDR, read-out: MIC", "value": 4, "unit": "µg/mL"},
      {"measurement": "MIC", "setting": "[1]; A. baumannii IHMA 2231797, Greece 2020, MDR, read-out: MIC", "value": 2, "unit": "µg/mL"},
      {"measurement": "MIC", "setting": "[1]; A. baumannii IHMA 2233099, Guatemala 2020, MDR, read-out: MIC", "value": 4, "unit": "µg/mL"},
      {"measurement": "MIC", "setting": "[1]; A. baumannii IHMA 2233430, Kazakhstan 2020, MDR, read-out: MIC", "value": 2, "unit": "µg/mL"},
      {"measurement": "MIC", "setting": "[1]; A. baumannii IHMA 2233548, Kazakhstan 2020, Non-MDR, read-out: MIC", "value": 4, "unit": "µg/mL"},
      {"measurement": "MIC", "setting": "[1]; A. baumannii IHMA 2238964, Thailand 2020, MDR, read-out: MIC", "value": 4, "unit": "µg/mL"},
      {"measurement": "MIC", "setting": "[1]; A. baumannii IHMA 2239052, Thailand 2020, Non-MDR, read-out: MIC", "value": 4, "unit": "µg/mL"},
      {"measurement": "MIC", "setting": "[1]; A. baumannii IHMA 2261047, Belgium 2020, MDR, read-out: MIC", "value": 4, "unit": "µg/mL"},
      {"measurement": "MIC", "setting": "[1]; A. baumannii IHMA 2261633, Canada 2020, Non-MDR, read-out: MIC", "value": 4, "unit": "µg/mL"},
      {"measurement": "MIC", "setting": "[1]; A. baumannii IHMA 2274234, South Africa 2020, MDR, read-out: MIC", "value": 2, "unit": "µg/mL"},
      {"measurement": "MIC", "setting": "[1]; A. baumannii IHMA 2274364, South Africa 2020, MDR, read-out: MIC", "value": 2, "unit": "µg/mL"},
      {"measurement": "MIC", "setting": "[1]; A. baumannii IHMA 2275237, Chile 2020, Non-MDR, read-out: MIC", "value": 2, "unit": "µg/mL"},
      {"measurement": "MIC", "setting": "[1]; A. baumannii IHMA 2275751, Jordan 2020, MDR, read-out: MIC", "value": 2, "unit": "µg/mL"},
      {"measurement": "MIC", "setting": "[1]; A. baumannii IHMA 2316205, United States 2020, MDR, read-out: MIC", "value": 2, "unit": "µg/mL"},
      {"measurement": "MIC", "setting": "[1]; MDR n = 50, read-out: MAX (maximum MIC; all strains inhibited)", "value": 4, "unit": "µg/mL"},
      {"measurement": "MIC50", "setting": "[1]; MDR n = 50", "value": 2, "unit": "µg/mL"},
      {"measurement": "MIC90", "setting": "[1]; MDR n = 50", "value": 4, "unit": "µg/mL"},
      {"measurement": "MIC", "setting": "[1]; MDR n = 50, read-out: MIN (minimum MIC)", "value": 1, "unit": "µg/mL"},
      {"measurement": "MIC", "setting": "[1]; all isolates n = 100, read-out: MAX (maximum MIC; all strains inhibited)", "value": 8, "unit": "µg/mL"},
      {"measurement": "MIC50", "setting": "[1]; all isolates n = 100", "value": 2, "unit": "µg/mL"},
      {"measurement": "MIC90", "setting": "[1]; all isolates n = 100", "value": 4, "unit": "µg/mL"},
      {"measurement": "MIC", "setting": "[1]; all isolates n = 100, read-out: MIN (minimum MIC)", "value": 1, "unit": "µg/mL"},
      {"measurement": "MIC", "setting": "[1]; non-MDR n = 50, read-out: MAX (maximum MIC)", "value": 8, "unit": "µg/mL"},
      {"measurement": "MIC50", "setting": "[1]; non-MDR n = 50", "value": 2, "unit": "µg/mL"},
      {"measurement": "MIC90", "setting": "[1]; non-MDR n = 50", "value": 4, "unit": "µg/mL"},
      {"measurement": "MIC", "setting": "[1]; non-MDR n = 50, read-out: MIN (minimum MIC)", "value": 1, "unit": "µg/mL"},
      {"measurement": "MAX (maximum MIC; all strains inhibited)", "setting": "[1]; MDR n = 50", "value": 4, "unit": "µg/mL"},
      {"measurement": "MAX (maximum MIC; all strains inhibited)", "setting": "[1]; all isolates n = 100", "value": 8, "unit": "µg/mL"},
      {"measurement": "fraction unbound at 4 h, 5 μM", "setting": "[2]; plasma, fu, fraction unbound", "value": 0.009},
      {"measurement": "recovery at 4 h, 5 μM", "setting": "[2]; plasma protein binding assay", "value": 89, "unit": "%"},
      {"measurement": "MIC", "setting": "[3]", "value": 2, "unit": "µg/mL"},
      {"measurement": "MIC (QC, repeated tests)", "setting": "[4]", "value": 1, "unit": "µg/mL"},
      {"measurement": "MIC", "setting": "[5]; E. faecium IHMA N° 1764866", "value": "≤ 0.03", "unit": "µg/mL"},
      {"measurement": "MIC", "setting": "[5]; E. faecium IHMA N° 1765436", "value": 0.06, "unit": "µg/mL"},
      {"measurement": "MIC", "setting": "[5]; E. faecium IHMA N° 1765746", "value": "≤ 0.03", "unit": "µg/mL"},
      {"measurement": "MIC", "setting": "[5]; E. faecium IHMA N° 1893573", "value": "≤ 0.03", "unit": "µg/mL"},
      {"measurement": "MIC", "setting": "[5]; E. faecium IHMA N° 1893846", "value": 0.12, "unit": "µg/mL"},
      {"measurement": "MIC", "setting": "[5]; E. faecium IHMA N° 1893942", "value": 0.06, "unit": "µg/mL"},
      {"measurement": "MIC", "setting": "[5]; E. faecium IHMA N° 1894055", "value": 0.06, "unit": "µg/mL"},
      {"measurement": "MIC", "setting": "[5]; E. faecium IHMA N° 1897027", "value": 0.06, "unit": "µg/mL"},
      {"measurement": "MIC", "setting": "[5]; E. faecium IHMA N° 1897101", "value": "≤ 0.03", "unit": "µg/mL"},
      {"measurement": "MIC", "setting": "[5]; E. faecium IHMA N° 1904592", "value": "≤ 0.03", "unit": "µg/mL"},
      {"measurement": "MIC", "setting": "[5]; E. faecium IHMA N° 2075051", "value": 0.06, "unit": "µg/mL"},
      {"measurement": "MIC", "setting": "[5]; E. faecium IHMA N° 2077718", "value": "≤ 0.03", "unit": "µg/mL"},
      {"measurement": "MIC", "setting": "[5]; E. faecium IHMA N° 2083787", "value": "≤ 0.03", "unit": "µg/mL"},
      {"measurement": "Cumulative % at MIC", "setting": "[5]; MIC 0.06 µg/mL", "value": 92.3, "unit": "%"},
      {"measurement": "Cumulative % at MIC", "setting": "[5]; MIC […]", "value": 100.0, "unit": "%"},
      {"measurement": "Cumulative % at MIC", "setting": "[5]; MIC ≤0.03 µg/mL", "value": 53.8, "unit": "%"},
      {"measurement": "MIC, all isolates", "setting": "[5]; n = 13", "value": "≤ 0.12", "unit": "µg/mL"}
    ]}
  ]
}
